This passage reports inhibition results from US10358436B2, “Kinase inhibitors and method of treating cancer” (University Health Network, priority 2010, dated 2019).

Counter-ions that a name gives are not always drawn.

The target of the experiment is Aurora A (Homo sapiens (Human), UniProt O14965). Kind of experiment: Aurora A inhibition assay (Z-Lyte). Format: biochemical.
Aurora A, sequence (O14965 whole entry): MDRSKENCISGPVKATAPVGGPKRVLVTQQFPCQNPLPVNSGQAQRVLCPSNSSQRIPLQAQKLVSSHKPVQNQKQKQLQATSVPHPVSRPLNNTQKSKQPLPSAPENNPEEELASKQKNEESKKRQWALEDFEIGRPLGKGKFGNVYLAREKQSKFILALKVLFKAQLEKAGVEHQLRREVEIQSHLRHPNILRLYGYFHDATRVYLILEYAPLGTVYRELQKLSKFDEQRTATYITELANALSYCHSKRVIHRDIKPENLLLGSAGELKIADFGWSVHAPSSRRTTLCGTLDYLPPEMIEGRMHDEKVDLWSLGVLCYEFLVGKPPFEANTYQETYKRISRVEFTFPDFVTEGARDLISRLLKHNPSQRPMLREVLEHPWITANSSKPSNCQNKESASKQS
A word on the inhibition: it is the drop in the measured response relative to a control, in per cent. High values mean a strong effect, low ones a weak effect. The compound `COc1ccc2c(c1)[C@]1(C[C@H]1c1ccc3c(-c4ccc(C5CCN(C)CC5)cc4)n[nH]c3c1)C(=O)N2` [Example A123, (1R,2S)-5′-methoxy-2-(3-(4-(1-methylpiperidin-4-yl)phenyl)-1H-indazol-6-yl)spiro[cyclopropane-1,3′-indolin]-2′-one hydrochloride] yielded an inhibition at 1 µM below 50%.
Under `COc1ccc2c(c1)[C@]1(C[C@H]1c1ccc3c(/C=C/c4ccc(N5CCNCC5)cc4)n[nH]c3c1)C(=O)N2` (relative stereo) [Example A182, (1R*,2S*)-5′-methoxy-2-(3-(4-(piperazin-1-yl)styryl)-1H-indazol-6-yl)spiro[cyclopropane-1,3′-indolin]-2′-one 2,2,2-trifluoroacetate] stands above 50%; under `O=C1Nc2ccccc2[C@]12C[C@H]2c1ccc2c(/C=C/c3ccc(CN4CCCCC4)nc3)n[nH]c2c1` (relative stereo) [Example A63, (1R*,2S*)-(E)-2-(3-((E)-2-(6-(piperidin-1-ylmethyl)pyridin-3-yl)vinyl)-1H-indazol-6-yl)spiro[cyclopropane-1,3′-indolin]-2′-one 2,2,2-trifluoroacetate salt], above 50%; under `COc1ccc2c(c1)[C@]1(C[C@H]1c1ccc3c(/C=C/c4ccc5c(c4)CCN(C)C5)n[nH]c3c1)C(=O)N2` [Example A75, (1R,2S)-5′-methoxy-2-(3-((E)-2-(2-methyl-1,2,3,4-tetrahydroisoquinolin-6-yl)vinyl)-1H-indazol-6-yl)spiro[cyclopropane-1,3′-indolin]-2′-one 2,2,2-trifluoroacetate salt], above 50%.
The compound `O=C1Nc2ccccc2[C@]12C[C@H]2c1ccc2c(/C=C/c3cccnc3)n[nH]c2c1` (relative stereo) [Example A28, (1R*,2S*)-2-(3-((E)-2-(pyridin-3-yl)vinyl)-1H-indazol-6-yl)spiro-[cyclopropane-1,3′-indolin]-2′-one] returned an inhibition at 1 µM above 50%.
`CN1CCc2cc(/C=C/c3n[nH]c4cc([C@@H]5C[C@@]56C(=O)Nc5ccccc56)ccc34)ccc2C1` [Example A74, (1R,2S)-2-(3-((E)-2-(2-methyl-1,2,3,4-tetrahydroisoquinolin-6-yl)vinyl)-1H-indazol-6-yl)spiro[cyclopropane-1,3′-indolin]-2′-one 2,2,2-trifluoroacetate salt] had an inhibition at 1 µM above 50%.
For the compound `O=C1Nc2ccc(F)cc2[C@]12C[C@H]2c1ccc2c(/C=C/c3ccc(CN4CCOCC4)cc3)n[nH]c2c1` (relative stereo) [Example A219, 1R*,2S*)-(E)-5′-fluoro-2-(3-(4-(morpholinomethyl)styryl-1H-indazol-6-yl)spiro[cyclopropane-1,3′-indolin]-2′-one 2,2,2-trifluoroacetate], the inhibition at 1 µM was above 50%.
`COc1ccc2c(c1)[C@]1(C[C@H]1c1ccc3c(/C=C/c4ccc(N5CCN(C)CC5)cc4)n[nH]c3c1)C(=O)N2` [Example A175, (1R,2S)-(E)-5′-methoxy-2-(3-(4-(4-methylpiperazin-1-yl)styryl)-1H-indazol-6-yl)spiro[cyclopropane-1,3′-indolin]-2′-one 2,2,2-trifluoroacetate]: the inhibition at 1 µM was below 50%.
`O=C1Nc2ccccc2[C@]12C[C@H]2c1ccc2c(/C=C/c3ccc(CN4CCCC4)cc3)n[nH]c2c1` [Example A61, (1R,2S)-(E)-2-(3-(4-(pyrolidin-1-ylmethyl)styryl)-1H-indazol-6-yl)spiro[cyclopropane-1,3′-indolin]-2′-one 2,2,2-trifluoroacetate] returned an inhibition at 1 µM above 50%.
For `COc1ccc2c(c1)[C@]1(C[C@H]1c1ccc3c(-c4ccc(OCCn5ccnc5)cc4)n[nH]c3c1)C(=O)N2` [Example A108, (1R,2S)-2-(3-(4-(2-(1H-imidazol-1-yl)ethoxy)phenyl)-1H-indazol-6-yl)-5′-methoxyspiro[cyclopropane-1,3′-indolin]-2′-one 2,2,2-trifluoroacetate] the value was below 50%.
Compound `COc1ccc2c(c1)[C@]1(C[C@H]1c1ccc3c(C#Cc4cccnc4)n[nH]c3c1)C(=O)N2` (relative stereo) [Example A52, (1R*,2S*)- and (1R*,2S*)-5′-methoxy-2-(3-(pyridin-3-ylethynyl)-1H-indazol-6-yl)spiro[cyclopropane-1,3′-indolin]-2′-one] yielded an inhibition at 1 µM below 50%.
Regarding `COc1ccc2c(c1)[C@]1(C[C@H]1c1ccc3c(/C=C/c4ccc(OC5CCN(C)CC5)cc4)n[nH]c3c1)C(=O)N2` [Example A79, (1R,2S)-(E)-5′-methoxy-2-(3-(4-(1-methylpiperidin-4-yloxy)styryl)-1H-indazol-6-yl)spiro[cyclopropane-1,3′-indolin]-2′-one 2,2,2-trifluoroacetate salt], the inhibition at 1 µM was above 50%.
Consider `O=C1Nc2ccc(F)cc2[C@]12C[C@H]2c1ccc2c(I)n[nH]c2c1` (relative stereo) [Example A40, (1R*,2S*)-5′-fluoro-2-(3-iodo-1H-indazol-6-yl)spiro[cyclopropane-1,3′-indolin]-2′-one], for which the inhibition at 1 µM is below 50%.
Consider `COc1ccc2c(c1)[C@]1(CC1c1ccc3c(/C=C/c4ccc(CN5CCCCC5)nc4)n[nH]c3c1)C(=O)N2` (mixture of isomers) [Example A62, (1R,2S)-(E)-5′-methoxy-2-(3-((E)-2-(6-(piperidin-1-ylmethyl)pyridin-3-yl)vinyl)-1H-indazol-6-yl)spiro[cyclopropane-1,3′-indolin]-2′-one 2,2,2-trifluoroacetate salt], for which the inhibition at 1 µM is above 50%.
`COc1ccc2c(c1)[C@]1(C[C@H]1c1ccc3c(-c4ccc5c(c4)CNCC5)n[nH]c3c1)C(=O)N2` [Example A71, (1R,2S)-5′-methoxy-2-(3-(1,2,3,4-tetrahydroisoquinolin-7-yl)-1H-indazol-6-yl)spiro[cyclopropane-1,3′-indolin]-2′-one 2,2,2-trifluoroacetate salt]: the inhibition at 1 µM was below 50%.
The compound `O=C1Nc2ccccc2[C@]12C[C@H]2c1ccc2c(I)n[nH]c2c1` (relative stereo) [Example A9, (1R*,2S*)-2-(3-iodo-1H-indazol-6-yl)spiro[cyclopropane-1,3′-indolin]-2′-one] returned an inhibition at 1 µM below 50%.
`COc1ccc2c(c1)[C@]1(C[C@H]1c1ccc3c(-c4ccc(N5CCN(C(C)C)CC5)cc4)n[nH]c3c1)C(=O)N2` (relative stereo) [Example A96, (1R*,2S*)-2-(3-(4-(4-isopropylpiperazin-1-yl)phenyl)-1H-indazol-6-yl)-5′-methoxyspiro[cyclopropane-1,3′-indolin]-2′-one] showed an inhibition at 1 µM below 50%.
For `CN1CCN(c2ccc(-c3n[nH]c4cc([C@@H]5C[C@@]56C(=O)Nc5ccc(F)cc56)ccc34)cn2)CC1` (relative stereo) [Example A210, 1R*,2S*1-5′-fluoro-2-(3-(6-(4-methylpiperazine-1-yl)pyridine-3-yl)-1H-indazol-6-yl)-spiro[cyclopropane-1,3′-indolin]-2′-one] the value was above 50%; for `COc1ccc2c(c1)[C@]1(C[C@H]1c1ccc3c(-c4ccc(OCCN5CCOCC5)cc4)n[nH]c3c1)C(=O)N2` [Example A68, (1R,2S)-5′-methoxy-2-(3-(4-(2-morpholinoethoxy)phenyl)-1H-indazol-6-yl)spiro[cyclopropane-1,3′-indolin]-2′-one 2,2,2-trifluoroacetate salt], below 50%; for `N#Cc1ccc(/C=C/c2n[nH]c3cc([C@@H]4C[C@@]45C(=O)Nc4ccccc45)ccc23)cc1` (relative stereo) [Example A54, 4-((E)-2-(6-((1R*,2S*)-2′-oxospiro[cyclopropane-1,3′-indoline]-2-yl)-1H-indazol-3-yl)vinyl)benzonitrile], above 50%.
Take `CN1CCN(C(=O)c2ccc(-c3n[nH]c4cc([C@@H]5C[C@@]56C(=O)Nc5ccccc56)ccc34)cc2)CC1` (relative stereo) [Example A156, (1R*,2S*)-2-(3-(4-(4-methylpiperazine-1-carbonyl)phenyl)-1H-indazol-6-yl)spiro[cyclopropane-1,3′-indolin]-2′-one 2,2,2-trifluoroacetate]: the inhibition at 1 µM was below 50%.
`CN1C(=O)[C@@]2(C[C@H]2c2ccc3c(/C=C/c4ccc(CN5CCCCC5)cc4)n[nH]c3c2)c2ccccc21` [Example A94, (1R,2S)-(E)-1′-methyl-2-(3-(4-(piperidin-1-ylmethyl)styryl)-1H-indazol-6-yl)spiro[cyclopropane-1,3′-indolin]-2′-one hydrochloride] yielded an inhibition at 1 µM above 50%.
`O=C1Nc2ccccc2[C@]12C[C@H]2c1ccc2c(/C=C/c3csc(CN4CCOCC4)c3)n[nH]c2c1` [Example A202, (1R,2S)-2-(3-((E)-2-(5-(morpholinomethyl)thiophen-3-yl)vinyl)-1H-indazol-6-yl)spiro[cyclopropane-1,3′-indolin]-2′-one 2,2,2-trifluoroacetate] displayed an inhibition at 1 µM above 50%.
`COc1ccc2c(c1)[C@@]1(C[C@@H]1c1ccc3c(-c4ccc(N5CCN(C)CC5)nc4)n[nH]c3c1)C(=O)N2` (stereo in doubt) [Example A16, (1S,2R)-5′-methoxy-2-(3-(6-(4-methylpiperazin-1-yl)pyridin-3-yl)-1H-indazol-6-yl)spiro[cyclopropane-1,3′-indolin]-2′-one] yielded an inhibition at 1 µM below 50%.
Under `Cc1ccc(/C=C/c2n[nH]c3cc([C@@H]4C[C@@]45C(=O)Nc4ccccc45)ccc23)cn1` [Example A150, (1R,2S)-2-(3-((E)-2-(6-methylpyridin-3-yl)vinyl)-1H-indazol-6-yl)spiro[cyclopropane-1,3′-indolin]-2′-one] stands above 50%; under `O=C1Nc2ccccc2[C@]12C[C@H]2c1ccc2c(/C=C/c3ccc(CN4CCCC4)cc3)n[nH]c2c1` (relative stereo) [Example A60, (1R*,2S*)-(E)-2-(3-(4-(pyrrolidin-1-ylmethyl)styryl)-1H-indazol-6-yl)spiro[cyclopropane-1,3′-indolin]-2′-one 2,2,2-trifluoroacetate], above 50%; under `COc1ccc2c(c1)[C@]1(C[C@H]1c1ccc3c(-c4cccc(CN5CCCCC5)c4)n[nH]c3c1)C(=O)N2` (relative stereo) [Example A44, (1R*,2S*)-5′-methoxy-2-(3-(3-(piperidin-1-ylmethyl)phenyl)-1H-indazol-6-yl)spiro[cyclopropane-1,3′-indolin]-2′-one 2,2,2-trifluoroacetate], below 50%.
